Data published in patent US9260439B2, “Dihydropyrrolopyrimidine derivatives” (PFIZER INC., priority 2014, dated 2016).

Target: truncated PI3Kα (p110α/iSH2 p85α) (Homo sapiens (Human), UniProt P42336)
Assay: PI3KA_Act fluorescence polarization kinase assay (Ki)
Format: biochemical
Conditions: 1 mM ATP
Method in brief: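 p110α/iSH2 p85α (0.5 nM) was reacted with 30 μM sonicated PIP2 in 50 mM HEPES pH 7.4, 150 mM NaCl, 5 mM MgCl2, 1 mM DTT and 0.05% CHAPS for 30 min at room temperature, then stopped with EDTA. PIP3 was detected by fluorescence polarization (GST-Grp1 PH domain/TAMRA-PIP3), and Ki came from a Morrison tight-binding fit.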

Sequence of truncated PI3Kα (p110α/iSH2 p85α) (P42336 whole entry, the tested form may be a part): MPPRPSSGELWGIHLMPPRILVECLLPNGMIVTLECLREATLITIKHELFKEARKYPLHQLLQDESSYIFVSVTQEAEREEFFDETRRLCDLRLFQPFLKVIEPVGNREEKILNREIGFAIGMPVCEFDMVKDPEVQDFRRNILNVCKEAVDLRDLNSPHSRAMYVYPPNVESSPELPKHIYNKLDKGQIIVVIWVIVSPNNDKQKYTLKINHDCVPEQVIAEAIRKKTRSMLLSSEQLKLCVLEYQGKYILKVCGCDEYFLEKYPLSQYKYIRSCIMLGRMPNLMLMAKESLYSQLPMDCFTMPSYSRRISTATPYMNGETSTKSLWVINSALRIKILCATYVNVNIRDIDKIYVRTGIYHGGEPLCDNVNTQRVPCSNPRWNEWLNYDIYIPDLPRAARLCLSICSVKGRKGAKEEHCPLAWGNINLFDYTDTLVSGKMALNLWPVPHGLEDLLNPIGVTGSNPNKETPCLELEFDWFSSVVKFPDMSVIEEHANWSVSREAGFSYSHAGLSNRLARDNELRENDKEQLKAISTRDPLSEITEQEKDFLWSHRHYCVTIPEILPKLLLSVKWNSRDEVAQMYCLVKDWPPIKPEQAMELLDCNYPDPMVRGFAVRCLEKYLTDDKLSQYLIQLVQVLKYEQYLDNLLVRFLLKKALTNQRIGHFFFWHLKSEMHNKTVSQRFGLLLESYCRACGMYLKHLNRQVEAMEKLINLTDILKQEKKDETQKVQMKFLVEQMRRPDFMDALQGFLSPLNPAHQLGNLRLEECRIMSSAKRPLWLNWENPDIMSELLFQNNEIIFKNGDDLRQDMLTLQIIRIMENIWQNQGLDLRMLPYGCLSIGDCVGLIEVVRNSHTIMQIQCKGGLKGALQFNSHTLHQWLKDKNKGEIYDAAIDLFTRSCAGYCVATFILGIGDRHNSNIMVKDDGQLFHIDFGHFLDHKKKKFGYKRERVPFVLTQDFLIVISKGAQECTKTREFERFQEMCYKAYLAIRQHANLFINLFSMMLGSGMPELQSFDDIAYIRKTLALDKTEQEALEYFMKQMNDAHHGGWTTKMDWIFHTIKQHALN

Row | SMILES | PI3KA_Act Ki [nM]
1 | COCCC(=O)N1CC(N2CCc3c(-c4cnc(N)nc4)nc(N4CCOC[C@@H]4C)nc32)C1 [Example 202] | 1.037
2 | Nc1ncc(-c2nc(N3CCOCC3)nc3c2CCN3C2CN(S(=O)(=O)N3CCC3)C2)cn1 [Example 252, 5-{7-[1-(azetidin-1-ylsulfonyl)azetidin-3-yl]-2-(morpholin-4-yl)-6,7-dihydro-5H-pyrrolo[2,3-d]pyrimidin-4-yl}pyrimidin-2-amine] | 0.158
3 | CS(=O)(=O)N1C[C@@H]2C[C@]2(N2CCc3c(-c4cnc(N)nc4)nc(N4CCOCC4)nc32)C1 [Example 437, 5-{7-[(1R,5S)-3-(methylsulfonyl)-3-azabicyclo[3.1.0]hex-1-yl]-2-(morpholin-4-yl)-6,7-dihydro-5H-pyrrolo[2,3-d]pyrimidin-4-yl}pyrimidin-2-amine] | 0.603
4 | C[C@]1(N2CCc3c(-c4cnc(N)nc4)nc(N4CCOCC4)nc32)CCN(C2CCCNC2=O)C1 (single isomer, unassigned) [Example 429] | 0.160
5 | C[C@H]1COCCN1c1nc(-c2cnc(N)nc2)c2c(n1)N(C1(C)CCN(S(C)(=O)=O)C1)CC2 (stereo partly drawn) [Example 164] | 0.030
6 | C[C@@H]1COCCN1c1nc(-c2cnc(N)nc2)c2c(n1)N([C@]1(C)CCN(S(C)(=O)=O)C1)CC2 [Example 232] | 4.263
7 | CC(C)C(=O)NCC(=O)N1CC(N2CCc3c(-c4cnc(N)nc4)nc(N4CCOCC4)nc32)C1 [Example 218] | 0.751
8 | CCC(C)(O)C(=O)N1CC[C@](C)(N2CCc3c(-c4cnc(N)nc4)nc(N4CCOCC4)nc32)C1 (single isomer, unassigned) [Example 273] | 0.087
9 | CC(C)NC(=O)N1CC[C@](C)(N2CCc3c(-c4cnc(N)nc4)nc(N4CCOCC4)nc32)C1 [Example 395, (3S)-3-[4-(2-aminopyrimidin-5-yl)-2-(morpholin-4-yl)-5,6-dihydro-7H-pyrrolo[2,3-d]pyrimidin-7-yl]-3-methyl-N-(propan-2-yl)pyrrolidine-1-carboxamide] | 0.352
10 | CP(C)(=O)N1CC[C@@H](N2CCc3c(-c4cnc(N)nc4)nc(N4CCOCC4)nc32)C1 [Example 180] | 1.759
11 | CC(C)(CN)C(=O)N1CC[C@](C)(N2CCc3c(-c4cnc(N)nc4)nc(N4CCOCC4)nc32)C1.Cl [Example 305, 3-amino-1-{(3S)-3-[4-(2-aminopyrimidin-5-yl)-2-(morpholin-4-yl)-5,6-dihydro-7H-pyrrolo[2,3-d]pyrimidin-7-yl]-3-methylpyrrolidin-1-yl}-2,2-dimethylpropan-1-one hydrochloride] | 0.036
12 | C[C@]1(N2CCc3c(-c4cnc(N)nc4)nc(N4CCOCC4)nc32)CCN(C(=O)C2CCC2)C1 [Example 341, {(3S)-3-[4-(2-aminopyrimidin-5-yl)-2-(morpholin-4-yl)-5,6-dihydro-7H-pyrrolo[2,3-d]pyrimidin-7-yl]-3-methylpyrrolidin-1-yl}(cyclobutyl)meth-anone] | <0.018
13 | C[C@@]1(N2CCc3c(-c4cnc(N)nc4)nc(N4CCOCC4)nc32)CCN(C(=O)C(O)C2CC2)C1 (single isomer, unassigned) [Example 326] | 0.048
14 | C[C@@]1(N2CCc3c(-c4cnc(N)nc4)nc(N4CCOCC4)nc32)CCN(C(=O)N2CC(O)C2)C1 [Example 365, {(3R)-3-[4-(2-aminopyrimidin-5-yl)-2-(morpholin-4-yl)-5,6-dihydro-7H-pyrrolo[2,3-d]pyrimidin-7-yl]-3-methylpyrrolidin-1-yl}(3-hydroxyazetidin-1-yl)methanone] | 0.063
15 | C[C@H]1COCCN1c1nc(-c2cnc(N)nc2)c2c(n1)N(C1(C)CN(C(=O)C3(C)CC3)C1)CC2 [Example 459, (3-{4-(2-aminopyrimidin-5-yl)-2-[(3S)-3-methylmorpholin-4-yl]-5,6-dihydro-7H-pyrrolo[2,3-d]pyrimidin-7-yl}-3-methylazetidin-1-yl)(1-methylcyclopropyl)methanone] | 0.057
